Data as given in US20250313548A1 (Actio Biosciences, Inc., priority 2023, published 2025).

Each compound was assayed against human, KCNT1 (Homo sapiens (Human), UniProt Q5JUK3) (assay: FLIPR Tl/K Flux Assay). Conditions: HEK293 cells stably expressing human KCNT1; Tl+ flux stimulated with EC80 of agonist Loxapine.
Type: cell-based
Method: HEK293 cells stably expressing human, KCNT1 were cultured in DMEM, 10% FBS, 100 U/mL penicillin-streptomycin and […] puromycin for selection purposes. One day before the assay, cells were detached using TrypLE™ Express and counted using a cell counter. Only cells with >85% viability were used for the assay. […] The cells were incubated overnight at 37° C., 5% (v/v) CO2.
On the day of the assay, the reagents were prepared following the FLIPR® Potassium Assay Kit manual: prepare 2× dye solution, dilute the dye with assay buffer (20 mM HEPES in 1× HBSS, PH7.4), addition of probenecid to a final concentration of 5 mM, and vortexed vigorously for 1-2 minutes. The cell plate was flicked to remove medium and tapped on paper towels to remove excess media. […] The cell plate was moved to a plate shaker, agitated at 600 rpm for two minutes, and then incubated at 25° C. for one hour.
The compounds were prepared in DMSO and transferred to a 384-well compound plate (PP, low binding), referred to as a source plate. Reference agonist (300 nM) compound and test inhibitor (10 mM) compounds were added to the compound plate and a 4-fold serial dilution was performed in DMSO. Using an ECHO dispenser, compounds were dispensed at 90 nL/well from the source plate to a 384-well compound plate (PP, low binding). After the dispensing was complete, 30 µL/well assay buffer was added to the compound plate and mixed for two minutes on a plate shaker. The cell plate, compound plate, and tips were loaded into the FLIPR instrument, and a transfer of 10 μl of 3× compound to the cell plate was initiated. The treated cell plate was kept at in the dark at 25° C. for 30 minutes. Chloride-free stimulation buffer containing 4× 2 mM Tl+ and 4×EC80 of agonist Loxapine was loaded into a 384-well compound plate (PP, low binding). After the 30-minute incubation, the cell plate, compound plate containing stimulation buffer, and FLIPR tips were loaded into the FLIPR instrument. After a baseline read, the FLIPR initiates a transfer of 10 μL of stimulation buffer containing Loxapine to the cell plate. The plate was read for 160 sec with 1 second interval reads to obtain the data.
The normalized fluorescence reading (RFU) was calculated as shown follow, while Fmax and Fmin stand for maximum and minimum of signal during defined time window. The IC50 was calculated by fitting % inhibition against log of compound concentrations with Hill equation using XLfit.

Sequence of human, KCNT1 (Q5JUK3 whole entry): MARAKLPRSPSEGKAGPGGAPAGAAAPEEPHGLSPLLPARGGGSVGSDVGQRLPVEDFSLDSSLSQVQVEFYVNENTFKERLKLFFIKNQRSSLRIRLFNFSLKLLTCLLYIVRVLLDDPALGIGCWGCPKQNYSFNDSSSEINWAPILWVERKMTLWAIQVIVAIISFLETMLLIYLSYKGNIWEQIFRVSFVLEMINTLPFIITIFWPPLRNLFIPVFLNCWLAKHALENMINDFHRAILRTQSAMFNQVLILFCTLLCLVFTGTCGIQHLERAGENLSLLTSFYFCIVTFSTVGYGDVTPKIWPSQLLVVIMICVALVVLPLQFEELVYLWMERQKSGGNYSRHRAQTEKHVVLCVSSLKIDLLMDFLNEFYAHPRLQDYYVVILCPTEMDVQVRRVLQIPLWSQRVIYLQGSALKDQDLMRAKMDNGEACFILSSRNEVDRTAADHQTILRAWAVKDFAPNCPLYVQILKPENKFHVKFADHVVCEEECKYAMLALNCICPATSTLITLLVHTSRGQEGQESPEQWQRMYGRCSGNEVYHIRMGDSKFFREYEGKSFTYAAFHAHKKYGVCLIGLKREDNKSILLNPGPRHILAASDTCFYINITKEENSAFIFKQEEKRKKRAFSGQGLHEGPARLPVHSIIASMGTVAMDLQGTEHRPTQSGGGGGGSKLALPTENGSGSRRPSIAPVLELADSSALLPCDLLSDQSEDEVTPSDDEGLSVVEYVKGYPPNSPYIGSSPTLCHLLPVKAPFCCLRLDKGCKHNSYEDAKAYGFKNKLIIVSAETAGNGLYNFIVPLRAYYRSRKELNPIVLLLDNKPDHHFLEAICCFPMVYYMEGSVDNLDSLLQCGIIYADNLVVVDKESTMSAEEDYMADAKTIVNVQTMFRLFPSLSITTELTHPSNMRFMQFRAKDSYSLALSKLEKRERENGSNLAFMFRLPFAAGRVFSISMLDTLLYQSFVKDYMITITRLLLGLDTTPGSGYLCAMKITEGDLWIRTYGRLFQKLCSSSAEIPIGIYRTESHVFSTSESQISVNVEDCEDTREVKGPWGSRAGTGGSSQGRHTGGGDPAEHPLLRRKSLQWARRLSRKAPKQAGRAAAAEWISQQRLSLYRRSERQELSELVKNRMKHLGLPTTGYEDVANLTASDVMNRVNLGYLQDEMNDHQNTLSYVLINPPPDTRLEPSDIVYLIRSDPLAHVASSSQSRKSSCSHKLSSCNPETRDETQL

Row | Compound | IC50
1 | Cn1nc(C(F)(F)F)cc1C(=O)N[C@H]1CCCc2nn(-c3ccnc(C(F)(F)F)c3)cc21 [Compound I-4a, (S)-1-Methyl-3-(trifluoromethyl)-N-(2-(2-(trifluoromethyl)pyridin-4-yl)-4,5,6,7-tetrahydro-2H-indazol-4-yl)-1H-pyrazole-5-carboxamide] | < 250 nM
2 | Cn1nc(C(F)(F)F)cc1C(=O)N[C@@H]1CCCc2nn(-c3ccnc(C(F)(F)F)c3)cc21 [Compound I-4b, (R)-1-Methyl-3-(trifluoromethyl)-N-(2-(2-(trifluoromethyl)pyridin-4-yl)-4,5,6,7-tetrahydro-2H-indazol-4-yl)-1H-pyrazole-5-carboxamide] | > 1000 nM
3 | O=C(N[C@H]1CCCc2nn(-c3ccnc(C4CC4)c3)cc21)c1cc(Cl)cc(C(F)(F)F)c1 [Compound I-5a] | < 250 nM
4 | O=C(N[C@H]1CCCc2nn(-c3ccnc(C(F)(F)F)c3)cc21)c1cc(C(F)(F)F)nn1C1CC1 [Compound I-9a, (S)-1-Cyclopropyl-3-(trifluoromethyl)-N-(2-(2-(trifluoromethyl)pyridin-4-yl)-4,5,6,7-tetrahydro-2H-indazol-4-yl)-1H-pyrazole-5-carboxamide] | < 250 nM
5 | CCOc1cc(-n2cc3c(n2)CCCC3NC(=O)c2ccccc2)ccn1 (stereo not shown) [Compound I-27] | > 1000 nM
6 | CN(C(=O)c1cc(C(F)(F)F)nn1C)[C@H]1CCCc2nn(-c3ccnc(C(F)(F)F)c3)cc21 [Compound I-37a, (S)—N,1-Dimethyl-3-(trifluoromethyl)-N-(2-(2-(trifluoromethyl)pyridin-4-yl)-4,5,6,7-tetrahydro-2H-indazol-4-yl)-1H-pyrazole-5-carboxamide] | > 1000 nM
7 | Cn1nc(C(F)(F)F)cc1C(=O)N[C@H]1CCCn2nc(-c3cnc(C(F)(F)F)s3)cc21 [Compound I-41a, (S)-1-Methyl-3-(trifluoromethyl)-N-(2-(2-(trifluoromethyl)thiazol-5-yl)-4,5,6,7-tetrahydropyrazolo[1,5-a]pyridin-4-yl)-1H-pyrazole-5-carboxamide] | < 250 nM
8 | Cn1nc(C(F)(F)F)cc1C(=O)N[C@@H]1CCCn2nc(-c3ccnc(C(F)(F)F)c3)cc21 [Compound I-42b, (R)-1-Methyl-3-(trifluoromethyl)-N-(2-(2-(trifluoromethyl)pyridin-4-yl)-4,5,6,7-tetrahydropyrazolo[1,5-a]pyridin-4-yl)-1H-pyrazole-5-carboxamide] | > 1000 nM
9 | Cn1nc(C(F)(F)F)cc1C(=O)NC1CCc2ccc(-c3ccnc(C(F)(F)F)c3)nc21 (stereo not shown) [Compound I-43] | > 1000 nM
10 | Cc1c(-c2ccnc(C(F)(F)F)c2)nn2c1[C@@H](NC(=O)c1cc(C(F)(F)F)nn1C)CCC2 [Compound I-44a] | < 250 nM
11 | Cn1nc(C(F)(F)F)cc1C(=O)N[C@H]1CCCCc2nn(-c3ccnc(C(F)(F)F)c3)cc21 [Compound I-45a, (S)-1-methyl-3-(trifluoromethyl)-N-(2-(2-(trifluoromethyl)pyridin-4-yl)-2,4,5,6,7,8-hexahydrocyclohepta[c]pyrazol-4-yl)-1H-pyrazole-5-carboxamide] | < 250 nM
12 | Cn1nc(C(F)(F)F)cc1C(=O)N[C@@H]1CCCCc2nn(-c3ccnc(C(F)(F)F)c3)cc21 [Compound I-45b, (R)-1-methyl-3-(trifluoromethyl)-N-(2-(2-(trifluoromethyl)pyridin-4-yl)-2,4,5,6,7,8-hexahydrocyclohepta[c]pyrazol-4-yl)-1H-pyrazole-5-carboxamide] | > 1000 nM
13 | Cn1nc(C(F)(F)F)cc1C(=O)N[C@H]1CCc2cnc(-c3ccnc(C(F)(F)F)c3)nc21 [Compound I-46a, (S)-1-Methyl-3-(trifluoromethyl)-N-(2-(2-(trifluoromethyl)pyridin-4-yl)-6,7-dihydro-5H-cyclopenta[d]pyrimidin-7-yl)-1H-pyrazole-5-carboxamide] | 250 to 500 nM
14 | Cn1nc(C(F)(F)F)cc1C(=O)N[C@@H]1CCc2cnc(-c3ccnc(C(F)(F)F)c3)nc21 [Compound I-46b, (R)-1-methyl-3-(trifluoromethyl)-N-(2-(2-(trifluoromethyl)pyridin-4-yl)-6,7-dihydro-5H-cyclopenta[d]pyrimidin-7-yl)-1H-pyrazole-5-carboxamide] | > 1000 nM
15 | Cn1nc(C(F)(F)F)cc1C(=O)N[C@H]1CCCc2nn(-c3ccnc(C4CC4)c3)cc21 [Compound I-48a] | < 250 nM
16 | Cn1nc(C(=O)N[C@H]2CCCc3nn(-c4ccnc(C(F)(F)F)c4)cc32)cc1C(C)(F)F [Compound I-49a] | > 1000 nM
17 | Cn1nc(C(F)(F)F)nc1C(=O)N[C@H]1CCCc2nn(-c3ccnc(C(F)(F)F)c3)cc21 [Compound I-50a] | < 250 nM
18 | Cn1nc(C(F)(F)F)cc1C(=O)NC1(C)CCCc2nn(-c3ccnc(C(F)(F)F)c3)cc21 (stereo not shown) [Compound I-51] | > 1000 nM
19 | Cn1nc(C(F)(F)F)cc1CC(=O)N[C@H]1CCCc2nn(-c3ccnc(C(F)(F)F)c3)cc21 [Compound I-53a, (S)-2-(1-Methyl-3-(trifluoromethyl)-1H-pyrazol-5-yl)-N-(2-(2-(trifluoromethyl)pyridin-4-yl)-4,5,6,7-tetrahydro-2H-indazol-4-yl)acetamide] | > 1000 nM
20 | Cn1nc(C(F)(F)F)cc1C(=O)N[C@H]1CCCCc2nn(-c3ccnc(C4CC4)c3)cc21 [Compound I-56a] | < 250 nM
21 | Cn1nc(C(F)(F)F)cc1C(=O)N[C@@H]1CCCCc2nn(-c3ccnc(C4CC4)c3)cc21 [Compound I-56b] | 500 to 1000 nM
22 | Cc1cccc(C(=O)N[C@H]2CCCCc3nn(-c4ccnc(C5CC5)c4)cc32)c1 [Compound I-58a] | < 250 nM

Row | Compound | IC50
23 | Cc1cccc(C(=O)N[C@@H]2CCCCc3nn(-c4ccnc(C5CC5)c4)cc32)c1 [Compound I-58b] | 500 to 1000 nM
24 | O=C(N[C@H]1CCCCc2nn(-c3ccnc(C4CC4)c3)cc21)c1cccc(C(F)(F)F)c1 [Compound I-60a] | < 250 nM
25 | O=C(N[C@@H]1CCCCc2nn(-c3ccnc(C4CC4)c3)cc21)c1cccc(C(F)(F)F)c1 [Compound I-60b] | 500 to 1000 nM
26 | Cn1nc(C(F)(F)F)cc1C(=O)N[C@H]1CCCn2nc(-c3ccnc(C4CC4)c3)cc21 [Compound I-64a] | < 250 nM
27 | Cn1nc(C(F)(F)F)cc1C(=O)N[C@@H]1CCCn2nc(-c3ccnc(C4CC4)c3)cc21 [Compound I-64b] | 500 to 1000 nM
28 | O=C(N[C@H]1CCn2nc(-c3ccnc(C4CC4)c3)cc21)c1ccc(C(F)(F)F)nc1 [Compound I-66a] | < 250 nM
29 | Cn1nc(C(F)(F)F)cc1C(=O)N[C@H]1CCn2nc(-c3ccnc(C4CC4)c3)cc21 [Compound I-68a] | < 250 nM
30 | Cn1nc(C(F)(F)F)cc1C(=O)N[C@@H]1CCn2nc(-c3ccnc(C4CC4)c3)cc21 [Compound I-68b] | 500 to 1000 nM
31 | CCc1cc(-n2cc3c(n2)CC[C@@H]3NC(=O)c2cc(C(F)(F)F)nn2C)ccn1 [Compound I-69a] | < 250 nM
32 | CCc1cc(-n2cc3c(n2)CC[C@H]3NC(=O)c2cc(C(F)(F)F)nn2C)ccn1 [Compound I-69b] | > 1000 nM
33 | CC(C)c1cc(-n2cc3c(n2)CC[C@@H]3NC(=O)c2cc(C(F)(F)F)nn2C)ccn1 [Compound I-70a] | < 250 nM
34 | CC(C)c1cc(-n2cc3c(n2)CC[C@H]3NC(=O)c2cc(C(F)(F)F)nn2C)ccn1 [Compound I-70b] | > 1000 nM
35 | Cn1nc(C(F)(F)F)cc1C(=O)N[C@H]1CCc2nn(-c3ccnc(C4CC4)c3)cc21 [Compound I-71a] | < 250 nM
36 | Cn1nc(C(F)(F)F)cc1C(=O)N[C@@H]1CCc2nn(-c3ccnc(C4CC4)c3)cc21 [Compound I-71b] | 500 to 1000 nM
37 | Cn1nc(C(F)(F)F)cc1C(=O)N[C@H]1CCc2nn(-c3ccnc(C4CCC4)c3)cc21 [Compound I-72a] | < 250 nM
38 | Cn1nc(C(F)(F)F)cc1C(=O)N[C@@H]1CCc2nn(-c3ccnc(C4CCC4)c3)cc21 [Compound I-72b] | > 1000 nM
39 | Cn1nc(C(F)(F)F)cc1C(=O)N[C@H]1CCc2nn(-c3ccnc(OC(F)(F)F)c3)cc21 [Compound I-73a] | < 250 nM
40 | Cn1nc(C(F)(F)F)cc1C(=O)N[C@@H]1CCc2nn(-c3ccnc(OC(F)(F)F)c3)cc21 [Compound I-73b] | 500 to 1000 nM
41 | Cn1nc(C(F)(F)F)cc1C(=O)N[C@H]1CCc2nn(-c3ccnc(OC(F)F)c3)cc21 [Compound I-74a] | < 250 nM
42 | Cn1nc(C(F)(F)F)cc1C(=O)N[C@@H]1CCc2nn(-c3ccnc(OC(F)F)c3)cc21 [Compound I-74b] | > 1000 nM
43 | Cn1nc(C(F)(F)F)cc1C(=O)N[C@H]1CCc2nn(-c3ccnc(C4(C)CC4)c3)cc21 [Compound I-75a, (S)-1-Methyl-N-(2-(2-(1-methylcyclopropyl)pyridin-4-yl)-2,4,5,6-tetrahydrocyclopenta[c]pyrazol-4-yl)-3-(trifluoromethyl)-1H-pyrazole-5-carboxamide] | < 250 nM
